Assay results: PMC7917255 (Frontiers in Pharmacology, 2021)
Positions count from the first letter of the chain named. pEC50: −log10 of the molar value.

What was measured:
ABCG2 [1] = target: T1, ABCG2 (Homo sapiens, UniProt Q9UNQ0, R482T); test: tritium-labeled mitoxantrone accumulation in transfected cells
T1 sequence (Q9UNQ0 1-655 R482T): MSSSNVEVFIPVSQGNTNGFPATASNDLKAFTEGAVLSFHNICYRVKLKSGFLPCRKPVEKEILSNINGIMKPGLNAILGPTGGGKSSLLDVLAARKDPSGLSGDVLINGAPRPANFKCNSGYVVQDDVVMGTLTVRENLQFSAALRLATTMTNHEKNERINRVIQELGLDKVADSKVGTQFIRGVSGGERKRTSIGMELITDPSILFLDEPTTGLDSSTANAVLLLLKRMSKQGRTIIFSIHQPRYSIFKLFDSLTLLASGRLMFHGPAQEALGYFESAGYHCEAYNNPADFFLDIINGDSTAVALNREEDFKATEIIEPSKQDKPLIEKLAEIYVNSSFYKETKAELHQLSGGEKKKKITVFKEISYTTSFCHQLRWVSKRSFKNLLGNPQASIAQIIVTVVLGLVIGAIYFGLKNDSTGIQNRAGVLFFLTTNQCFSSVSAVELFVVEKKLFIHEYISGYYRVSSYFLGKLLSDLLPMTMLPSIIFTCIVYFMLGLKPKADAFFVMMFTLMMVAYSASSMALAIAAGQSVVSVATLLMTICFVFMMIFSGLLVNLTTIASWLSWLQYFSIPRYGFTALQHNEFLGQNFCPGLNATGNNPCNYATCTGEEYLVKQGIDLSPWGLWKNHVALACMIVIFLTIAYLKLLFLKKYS

ABCG2 [2] = target: T2, ABCG2 (Homo sapiens, UniProt Q9UNQ0); test: biochemical
T2 construct: ABCG2 in insect cell membrane vesicles (total membranes)
T2 sequence (Q9UNQ0 1-655): T1 sequence (Q9UNQ0 1-655 R482T) with T482R

Row | SMILES | tritium-labeled mitoxantrone accumulation in transfected cells (ABCG2 [1]) | pEC50 (ABCG2 [2])
1 | O=C1c2c(O)ccc(O)c2C(=O)c2c(NCCNCCO)ccc(NCCNCCO)c21 [mitoxantrone] | ABCG2-mediated efflux of mitoxantrone, which is an established substrate of ABCG2, in R482T-mutant-ABCG2-overexpressing cell line | –
2 | Cc1cc(O)c(-c2ccc([C@@H](C)CN(C)C)cc2)c2c1[nH]c(=O)c1sccc12 [OTS964] | – | 6.85
